Laboratory results published in US20260297081A1, “COMPOUNDS AND METHODS OF TREATING CANCERS” (Cullgen Inc., priority 2023, published 2026).

Target: CDK4 (Homo sapiens, UniProt P11802+Q16531)
Assay: HiBiT detection of HiBiT-tagged CDK4 protein level in MCF7 cells, 16 hours (Table 8)
Format: cell-based
Design: expressed in transfected cells; host or cells: MCF7
Settings: MCF7 cells stably expressing HiBiT tagged target proteins; for activity at 0.01 µM: 10 nM, read-out: % CDK4 Relative Level (10 nM); for activity at 0.1 µM: 100 nM, read-out: % CDK4 Relative Level (100 nM)
Experimental: HiBiT detection system quantitatively measures total amounts of HiBiT-tagged proteins using a luminescent based method. MCF7 cells stably expressing HiBiT tagged target proteins were treated with heterobifunctional compounds at indicated concentrations for 16 hours, then lysed with Nano-Glo HiBiT Lytic detection reagents.

CDK4, sequence (P11802 whole entry): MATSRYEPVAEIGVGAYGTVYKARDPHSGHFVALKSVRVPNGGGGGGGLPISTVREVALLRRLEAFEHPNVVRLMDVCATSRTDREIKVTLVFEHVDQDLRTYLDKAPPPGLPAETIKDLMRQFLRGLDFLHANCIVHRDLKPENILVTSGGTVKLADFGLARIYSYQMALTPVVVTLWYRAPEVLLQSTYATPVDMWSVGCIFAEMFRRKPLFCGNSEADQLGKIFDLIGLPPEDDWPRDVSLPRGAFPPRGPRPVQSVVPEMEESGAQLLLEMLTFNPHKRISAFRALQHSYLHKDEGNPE
CDK4, sequence (P24385 whole entry partner): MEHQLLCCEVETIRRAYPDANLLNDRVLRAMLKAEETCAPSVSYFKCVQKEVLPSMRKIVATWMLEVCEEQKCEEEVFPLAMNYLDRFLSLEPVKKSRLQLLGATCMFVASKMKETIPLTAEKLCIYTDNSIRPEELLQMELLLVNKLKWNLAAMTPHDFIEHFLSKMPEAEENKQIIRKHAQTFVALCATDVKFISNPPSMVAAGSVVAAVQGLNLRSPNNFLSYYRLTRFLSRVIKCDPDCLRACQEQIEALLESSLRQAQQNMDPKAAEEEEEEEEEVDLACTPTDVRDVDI
CDK4, sequence (Q16531 2-1140 limits assumed): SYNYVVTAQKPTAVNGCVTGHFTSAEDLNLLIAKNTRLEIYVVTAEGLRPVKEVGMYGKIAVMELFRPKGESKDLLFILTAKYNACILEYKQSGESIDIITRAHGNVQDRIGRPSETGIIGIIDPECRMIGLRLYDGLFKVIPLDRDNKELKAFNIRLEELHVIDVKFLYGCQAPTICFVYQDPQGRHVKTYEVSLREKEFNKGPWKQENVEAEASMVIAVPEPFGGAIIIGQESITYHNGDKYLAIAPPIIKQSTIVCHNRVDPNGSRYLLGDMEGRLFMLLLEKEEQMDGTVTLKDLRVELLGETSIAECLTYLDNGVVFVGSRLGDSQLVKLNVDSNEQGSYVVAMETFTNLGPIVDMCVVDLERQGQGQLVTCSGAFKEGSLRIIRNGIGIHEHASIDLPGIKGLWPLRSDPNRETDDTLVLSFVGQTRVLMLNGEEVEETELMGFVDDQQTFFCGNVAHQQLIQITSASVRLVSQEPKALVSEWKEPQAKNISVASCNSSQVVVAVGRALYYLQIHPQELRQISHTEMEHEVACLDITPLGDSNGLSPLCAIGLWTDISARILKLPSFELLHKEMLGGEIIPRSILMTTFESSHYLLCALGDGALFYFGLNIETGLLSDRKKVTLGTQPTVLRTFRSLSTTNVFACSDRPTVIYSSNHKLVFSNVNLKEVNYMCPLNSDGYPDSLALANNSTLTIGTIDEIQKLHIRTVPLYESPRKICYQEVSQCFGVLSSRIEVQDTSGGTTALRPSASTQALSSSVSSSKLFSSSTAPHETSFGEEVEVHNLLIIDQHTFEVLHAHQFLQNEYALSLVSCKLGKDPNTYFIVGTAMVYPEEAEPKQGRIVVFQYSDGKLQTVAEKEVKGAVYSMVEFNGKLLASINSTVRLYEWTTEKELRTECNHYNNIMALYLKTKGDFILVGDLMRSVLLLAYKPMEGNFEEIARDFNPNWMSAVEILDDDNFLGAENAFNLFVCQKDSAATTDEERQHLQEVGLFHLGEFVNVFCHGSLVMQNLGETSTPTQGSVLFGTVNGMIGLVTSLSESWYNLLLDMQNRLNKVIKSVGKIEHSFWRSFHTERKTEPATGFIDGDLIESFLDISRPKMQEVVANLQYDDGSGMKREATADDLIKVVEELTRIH

activity at 0.01 µM	activity at 0.1 µM	SMILES
> 85%	> 85%	CNc1ccc(C(=O)Nc2ccc(N(C)C)nn2)c(NCCCCCCCCNC(=O)CN2CCN(c3ccc(Nc4ncc(F)c(-c5cc(F)c6nc(C)n(C(C)C)c6c5)n4)nc3)CC2)n1 [CPD-664, N-(6-(dimethylamino)pyridazin-3-yl)-2-((8-(2-(4-(6-((5-fluoro-4-(4-fluoro-1-isopropyl-2-methyl-1H-benzo[d]imidazol-6-yl)pyrimidin-2-yl)amino)pyridin-3-yl)piperazin-1-yl)acetamido)octyl)amino)-6-(methylamino)nicotinamide]
> 85%	> 85%	CNc1ccc(C(=O)Nc2ccc(N(C)C)nn2)c(NCCC(=O)NC2CCC(Nc3ncc4ccc(=O)n(C5CCCC5)c4n3)CC2)n1 (stereo not drawn) [CPD-666, 2-((3-((4-((8-cyclopentyl-7-oxo-7,8-dihydropyrido[2,3-d]pyrimidin-2-yl)amino)cyclohexyl)amino)-3-oxopropyl)amino)-N-(6-(dimethylamino)pyridazin-3-yl)-6-(methylamino)nicotinamide]
> 85%	> 85%	CC(C)Nc1ccc(C(=O)Nc2ccc(N(C)C)nn2)c(NC2CC3(CC(NC(=O)CN4CCN(Cc5ccc(Nc6ncc7cc(C(=O)N(C)C)n(C8CCCC8)c7n6)nc5)CC4)C3)C2)n1 (stereo not drawn) [CPD-562, 7-cyclopentyl-2-((5-((4-(2-((6-((3-((6-(dimethylamino)pyridazin-3-yl)carbamoyl)-6-(isopropylamino)pyridin-2-yl)amino)spiro[3.3]heptan-2-yl)amino)-2-oxoethyl)piperazin-1-yl)methyl)pyridin-2-yl)amino)-N,N-dimethyl-7H-pyrrolo[2,3-d]pyrimidine-6-carboxamide]
> 85%	> 85%	CNc1ccc(C(=O)Nc2ccc(N(C)C)nn2)c(NCCCCCCC(=O)N2CCN(Cc3ccc(Nc4ncc(F)c(-c5cc(F)c6nc(C)n(C(C)C)c6c5)n4)nc3)CC2)n1 [CPD-604, N-(6-(dimethylamino)pyridazin-3-yl)-2-((7-(4-((6-((5-fluoro-4-(4-fluoro-1-isopropyl-2-methyl-1H-benzo[d]imidazol-6-yl)pyrimidin-2-yl)amino)pyridin-3-yl)methyl)piperazin-1-yl)-7-oxoheptyl)amino)-6-(methylamino)nicotinamide]
> 85%	> 85%	CNc1ccc(C(=O)Nc2ccc(N(C)C)nn2)c(NCCCCCCCCNC(=O)CN2CCN(Cc3ccc(Nc4ncc(F)c(-c5cc(F)c6nc(C)n(C(C)C)c6c5)n4)nc3)CC2)n1 [CPD-614, N-(6-(dimethylamino)pyridazin-3-yl)-2-((8-(2-(4-((6-((5-fluoro-4-(4-fluoro-1-isopropyl-2-methyl-1H-benzo[d]imidazol-6-yl)pyrimidin-2-yl)amino)pyridin-3-yl)methyl)piperazin-1-yl)acetamido)octyl)amino)-6-(methylamino)nicotinamide]
> 85%	> 85%	CC(=O)c1c(C)c2cnc(Nc3ccc(CN4CCC(CC(=O)NC5CC6(C5)CC(Nc5nc(NC(C)C)ccc5C(=O)Nc5ccc(N(C)C)nn5)C6)CC4)cn3)nc2n(C2CCCC2)c1=O (stereo not drawn) [CPD-593, 2-((6-(2-(1-((6-((6-acetyl-8-cyclopentyl-5-methyl-7-oxo-7,8-dihydropyrido[2,3-d]pyrimidin-2-yl)amino)pyridin-3-yl)methyl)piperidin-4-yl)acetamido)spiro[3.3]heptan-2-yl)amino)-N-(6-(dimethylamino)pyridazin-3-yl)-6-(isopropylamino)nicotinamide]
> 85%	> 85%	CNc1ccc(C(=O)Nc2ccc(N(C)C)nn2)c(NCCCCCCCC(=O)NC2CCC3(CC2)CC(Nc2ncc4ccc(=O)n(C5CCCC5)c4n2)C3)n1 (stereo not drawn) [CPD-678, 2-((8-((2-((8-cyclopentyl-7-oxo-7,8-dihydropyrido[2,3-d]pyrimidin-2-yl)amino)spiro[3.5]nonan-7-yl)amino)-8-oxooctyl)amino)-N-(6-(dimethylamino)pyridazin-3-yl)-6-(methylamino)nicotinamide]
> 85%	> 85%	CNc1ccc(C(=O)Nc2ccc(N(C)C)nn2)c(NCCCCCCC(=O)NC2CCC3(CC2)CC(Nc2ncc4ccc(=O)n(C5CCCC5)c4n2)C3)n1 (stereo not drawn) [CPD-677, 2-((7-((2-((8-cyclopentyl-7-oxo-7,8-dihydropyrido[2,3-d]pyrimidin-2-yl)amino)spiro[3.5]nonan-7-yl)amino)-7-oxoheptyl)amino)-N-(6-(dimethylamino)pyridazin-3-yl)-6-(methylamino)nicotinamide]
> 85%	> 85%	CNc1ccc(C(=O)Nc2ccc(N(C)C)nn2)c(NCCCCCCCC(=O)NC2CCC(Nc3ncc4ccc(=O)n(C5CCCC5)c4n3)CC2)n1 (stereo not drawn) [CPD-671, 2-((8-((4-((8-cyclopentyl-7-oxo-7,8-dihydropyrido[2,3-d]pyrimidin-2-yl)amino)cyclohexyl)amino)-8-oxooctyl)amino)-N-(6-(dimethylamino)pyridazin-3-yl)-6-(methylamino)nicotinamide]
> 85%	> 85%	CNc1ccc(C(=O)Nc2ccc(N(C)C)nn2)c(NCCCC(=O)NC2CCC(Nc3ncc4ccc(=O)n(C5CCCC5)c4n3)CC2)n1 (stereo not drawn) [CPD-667, 2-((4-((4-((8-cyclopentyl-7-oxo-7,8-dihydropyrido[2,3-d]pyrimidin-2-yl)amino)cyclohexyl)amino)-4-oxobutyl)amino)-N-(6-(dimethylamino)pyridazin-3-yl)-6-(methylamino)nicotinamide]
> 85%	> 85%	CNc1ccc(C(=O)Nc2ccc(N(C)C)nn2)c(NCCC(=O)NC2CCC3(CC2)CC(Nc2ncc4ccc(=O)n(C5CCCC5)c4n2)C3)n1 (stereo not drawn) [CPD-673, 2-((3-((2-((8-cyclopentyl-7-oxo-7,8-dihydropyrido[2,3-d]pyrimidin-2-yl)amino)spiro[3.5]nonan-7-yl)amino)-3-oxopropyl)amino)-N-(6-(dimethylamino)pyridazin-3-yl)-6-(methylamino)nicotinamide]
> 85%	> 85%	CNc1ccc(C(=O)Nc2ccc(N(C)C)nn2)c(NCCOCCNC(=O)CN2CCN(Cc3ccc(Nc4ncc(F)c(-c5cc(F)c6nc(C)n(C(C)C)c6c5)n4)nc3)CC2)n1 [CPD-615, N-(6-(dimethylamino)pyridazin-3-yl)-2-((2-(2-(2-(4-((6-((5-fluoro-4-(4-fluoro-1-isopropyl-2-methyl-1H-benzo[d]imidazol-6-yl)pyrimidin-2-yl)amino)pyridin-3-yl)methyl)piperazin-1-yl)acetamido)ethoxy)ethyl)amino)-6-(methylamino)nicotinamide]
55 to 85%	55 to 85%	CNc1ccc(C(=O)Nc2ccc(N(C)C)nn2)c(NCCNC(=O)CN2CCN(c3ccc(Nc4ncc5cc(C(=O)N(C)C)n(C6CCCC6)c5n4)nc3)CC2)n1 [CPD-624, 7-cyclopentyl-2-((5-(4-(2-((2-((3-((6-(dimethylamino)pyridazin-3-yl)carbamoyl)-6-(methylamino)pyridin-2-yl)amino)ethyl)amino)-2-oxoethyl)piperazin-1-yl)pyridin-2-yl)amino)-N,N-dimethyl-7H-pyrrolo[2,3-d]pyrimidine-6-carboxamide]
> 85%	> 85%	CNc1ccc(C(=O)Nc2ccc(N(C)C)nn2)c(NCCCCCCCC(=O)N2CCN(c3ccc(Nc4ncc5cc6n(c5n4)C4(CCCCC4)CNC6=O)nc3)CC2)n1 [CPD-637, N-(6-(dimethylamino)pyridazin-3-yl)-6-(methylamino)-2-((8-oxo-8-(4-(6-((6′-oxo-7′,8′-dihydro-6′H-spiro[cyclohexane-1,9′-pyrazino[1′,2′:1,5]pyrrolo[2,3-d]pyrimidin]-2′-yl)amino)pyridin-3-yl)piperazin-1-yl)octyl)amino)nicotinamide]
> 85%	> 85%	CNc1ccc(C(=O)Nc2ccc(N(C)C)nn2)c(NCCCCCC(=O)NC2CCC(Nc3ncc4ccc(=O)n(C5CCCC5)c4n3)CC2)n1 (stereo not drawn) [CPD-669, 2-((6-((4-((8-cyclopentyl-7-oxo-7,8-dihydropyrido[2,3-d]pyrimidin-2-yl)amino)cyclohexyl)amino)-6-oxohexyl)amino)-N-(6-(dimethylamino)pyridazin-3-yl)-6-(methylamino)nicotinamide]
> 85%	> 85%	CNc1ccc(C(=O)Nc2ccc(N(C)C)nn2)c(NCCOCCC(=O)N2CCN(c3ccc(Nc4ncc5cc6n(c5n4)C4(CCCCC4)CNC6=O)nc3)CC2)n1 [CPD-638]
> 85%	> 85%	CNc1ccc(C(=O)Nc2ccc(N(C)C)nn2)c(NCCCCC(=O)NC2CCC(Nc3ncc4ccc(=O)n(C5CCCC5)c4n3)CC2)n1 (stereo not drawn) [CPD-668, 2-((5-((4-((8-cyclopentyl-7-oxo-7,8-dihydropyrido[2,3-d]pyrimidin-2-yl)amino)cyclohexyl)amino)-5-oxopentyl)amino)-N-(6-(dimethylamino)pyridazin-3-yl)-6-(methylamino)nicotinamide]
55 to 85%	> 85%	CNc1ccc(C(=O)Nc2ccc(N(C)C)nn2)c(NCCOCCNC(=O)CN2CCN(c3ccc(Nc4ncc(F)c(-c5cc(F)c6nc(C)n(C(C)C)c6c5)n4)nc3)CC2)n1 [CPD-665, N-(6-(dimethylamino)pyridazin-3-yl)-2-((2-(2-(2-(4-(6-((5-fluoro-4-(4-fluoro-1-isopropyl-2-methyl-1H-benzo[d]imidazol-6-yl)pyrimidin-2-yl)amino)pyridin-3-yl)piperazin-1-yl)acetamido)ethoxy)ethyl)amino)-6-(methylamino)nicotinamide]
